In ChEMBL document CHEMBL3813607, “New antitumour agents with α,β-unsaturated δ-lactone scaffold: Synthesis and antiproliferative activity of (-)-cleistenolide and analogues” (Bioorg Med Chem Lett, 2016):

Key:
[1] = tested on: HeLa; experiment: Cytotoxicity against human HeLa cells assessed as cell growth inhibition after 72 hrs by MTT assay; type: functional, cell-based
[2] = Cytotoxicity against human HL60 cells assessed as cell growth inhibition after 72 hrs by MTT assay; type: functional, cell-based; conditions: HL-60, 72 h
[3] = tested on: MDA-MB-231; experiment: Cytotoxicity against human MDA-MB-231 cells assessed as cell growth inhibition after 72 hrs by MTT assay; type: functional, cell-based; conditions: MDA-MB-231, 72 h
[4] = tested on: Jurkat; experiment: Cytotoxicity against human Jurkat cells assessed as cell growth inhibition after 72 hrs by MTT assay; type: functional, cell-based
[5] = tested on: K562; experiment: Cytotoxicity against human K562 cells assessed as cell growth inhibition after 72 hrs by MTT assay; type: functional, cell-based; conditions: K562, 72 h
[6] = tested on: MRC5; experiment: Cytotoxicity against human MRC5 cells assessed as cell growth inhibition after 72 hrs by MTT assay; type: functional, cell-based; conditions: MRC5, 72 h
[7] = tested on: Raji; experiment: Cytotoxicity against human Raji cells assessed as cell growth inhibition after 72 hrs by MTT assay; type: functional, cell-based
[8] = tested on: A549; experiment: Cytotoxicity against human A549 cells assessed as cell growth inhibition after 72 hrs by MTT assay; type: functional, cell-based; conditions: A549, 72 h
[9] = tested on: MCF7; experiment: Cytotoxicity against human MCF7 cells assessed as cell growth inhibition after 72 hrs by MTT assay; type: functional, cell-based; conditions: MCF7, 72 h
[10] = tested on: A549; experiment: Potency index, ratio of Doxorubicin IC50 to ratio of compound IC50 for human A549 cells; type: functional
[11] = tested on: MDA-MB-231; experiment: Potency index, ratio of Doxorubicin IC50 to ratio of compound IC50 for human MDA-MB-231 cells; type: functional

| SMILES | IC50 [1] | IC50 [2] | IC50 [3] | IC50 [4] | IC50 [5] | IC50 [6] | IC50 [7] | IC50 [8] | IC50 [9] | Ratio IC50 [10] | Ratio IC50 [11] |
| --- | --- | --- | --- | --- | --- | --- | --- | --- | --- | --- | --- |
| COc1cccc(C(=O)OC[C@@H](OC(C)=O)[C@H]2OC(=O)C=C[C@H]2OC(C)=O)c1 | 1.95 µM | 0.89 µM | 7.46 µM | 8.31 µM | 2.69 µM | 91.3 µM | 25.6 µM | 11 µM | 4.71 µM |  |  |
| COc1cccc2c1C(=O)c1c(O)c3c(c(O)c1C2=O)C[C@@](O)(C(=O)CO)C[C@@H]3O[C@H]1C[C@H](N)[C@H](O)[C@H](C)O1 [DOXORUBICIN] |  | 0.92 µM |  |  |  |  |  |  |  |  |  |
| CC(=O)O[C@@H]1C=CC(=O)O[C@@H]1[C@@H](COC(=O)/C=C/c1ccccc1)OC(C)=O | 0.21 µM | 24.6 µM | 1.46 µM | 0.25 µM | 0.28 µM | > 100 µM | 11.2 µM | 2.02 µM | 16 µM | 2.5 |  |
| CC(=O)O[C@@H]1C=CC(=O)O[C@@H]1[C@@H](COC(=O)c1c(Cl)cc(Cl)cc1Cl)OC(C)=O | 14 µM | 36.2 µM | 0.02 µM | 6.25 µM | 1.02 µM | 45.7 µM | 11.2 µM | 4.23 µM | 0.62 µM |  | 4.5 |
| CC(=O)O[C@@H]1C=CC(=O)O[C@@H]1[C@@H](COC(=O)c1ccccc1)OC(C)=O | 7.32 µM | 1.21 µM | 2.25 µM | 14.2 µM | 7.65 µM | > 100 µM | 36.9 µM | 16.3 µM | 26.1 µM |  |  |
